Results taken from patent US6235786A, “Reverse hydroxamate inhibitors of matrix metalloproteinases” (Abbott Laboratories, priority 2000, dated 2001).

biological target: T1, stromelysin (Homo sapiens, UniProt P08254); experiment: Determination of Stromelysin Inhibition (cleavage of thiopeptide ester substrate, DTNB, 405 nm); assay type: biochemical; conditions: Table 1; recombinant truncated human stromelysin, pH 6.5, 30 minute assay at ambient temperature
T1 construct: made in house; host or cells: E. coli
Description: The efficacy of the compounds of this invention as matrix metalloproteinase inhibitors was determined by measuring the inhibition of stromelysin. The inhibition of stromelysin by the compounds of this invention was determined as follows: Recombinant truncated stromelysin (human sequence) produced in E. coli was prepared by expression and purification of the protein as described by Ye et al. (Biochemistry, 1992, 31, 11231-11235, which is incorporated herein by reference). The enzyme was assayed by its cleavage of the thiopeptide ester substrate Ac-Pro-Leu-Gly-(2-mercapto-4-methyl-pentanoyl)-Leu-Gly-OEt as described by Weingarten and Feder (Anal. Biochem., 1985, 147, 437-440 (1985), which is incorporated herein by reference) as a substrate of vertebrate collagenase. The reported conditions were modified to allow assays to be carried out in a microtiter plate. Upon hydrolysis of the thioester bond, the released thiol group reacted rapidly with 5,5'-dithio-bis(2-nitrobenzoic acid) (DTNB) to produce a yellow color which was measured by a microtiter plate reader set at 405 nm. The rates of cleavage of the substrate by stromelysin in the presence or absence of inhibitors were measured in a 30 minute assay at ambient temperature. Solutions of the compounds in DMSO were prepared, and these were diluted at various concentrations into the assay buffer (50 mM MES/NaOH pH 6.5 with 10 mM CaCl2 and 0.2% Pluronic F-68), which was also used for dilution of the enzyme and substrate. The potency of the compounds (IC50) was calculated from the inhibition/inhibitor concentration data.

T1 sequence (P08254 100-272 limits assumed): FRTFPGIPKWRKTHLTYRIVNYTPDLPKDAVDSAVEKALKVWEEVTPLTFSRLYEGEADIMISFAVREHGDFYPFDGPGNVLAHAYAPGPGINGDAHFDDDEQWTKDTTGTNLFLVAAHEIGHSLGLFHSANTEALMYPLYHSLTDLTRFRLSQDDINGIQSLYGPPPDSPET

IC50 [nM]	SMILES
4.3	CC(CCS(=O)(=O)c1ccc(Oc2ccccc2)cc1)N(O)C=O (racemic) [Example 120, (±)-N-hydroxy-N-(1-methyl-3-((4-phenoxyphenyl)sulfonyl)propyl)formamide]
130	CC(CCS(=O)(=O)c1ccc(Oc2ccc(OC(F)(F)F)cc2)cc1)N(O)C=O (racemic) [Example 121, (±)-N-hydroxy-N-(1-methyl-3-((4-(4-(trifluoromethoxy)phenoxy)phenyl)-sulfonyl)propyl)formamide]
270	CC1(C)NC(=O)N(C[C@@H](CCS(=O)(=O)c2ccc(Oc3ccccc3)cc2)N(O)C=O)C1=O [Example 123, (R)-N-(1-((4,4-dimethyl-2,5-dioxo-1-imidazolidinyl)methyl)-3-((4-phenoxyphenyl)sulfonyl)propyl)-N-hydroxyformamide]

biological target: T2, gelatinase-A (MMP-2) (Homo sapiens, UniProt P08253); experiment: Inhibition of Gelatinase A (MMP-2), cleavage of a fluorescent substrate; assay type: biochemical; conditions: Table 2; recombinant active gelatinase-A (MMP-2), pH 7.4, 40 min assay at ambient temperature
T2 construct: Recombinant active gelatinase-A (MMP-2) is purchased from Oncogene Research; purchased Oncogene Research
T2 sequence (P08253 110-660): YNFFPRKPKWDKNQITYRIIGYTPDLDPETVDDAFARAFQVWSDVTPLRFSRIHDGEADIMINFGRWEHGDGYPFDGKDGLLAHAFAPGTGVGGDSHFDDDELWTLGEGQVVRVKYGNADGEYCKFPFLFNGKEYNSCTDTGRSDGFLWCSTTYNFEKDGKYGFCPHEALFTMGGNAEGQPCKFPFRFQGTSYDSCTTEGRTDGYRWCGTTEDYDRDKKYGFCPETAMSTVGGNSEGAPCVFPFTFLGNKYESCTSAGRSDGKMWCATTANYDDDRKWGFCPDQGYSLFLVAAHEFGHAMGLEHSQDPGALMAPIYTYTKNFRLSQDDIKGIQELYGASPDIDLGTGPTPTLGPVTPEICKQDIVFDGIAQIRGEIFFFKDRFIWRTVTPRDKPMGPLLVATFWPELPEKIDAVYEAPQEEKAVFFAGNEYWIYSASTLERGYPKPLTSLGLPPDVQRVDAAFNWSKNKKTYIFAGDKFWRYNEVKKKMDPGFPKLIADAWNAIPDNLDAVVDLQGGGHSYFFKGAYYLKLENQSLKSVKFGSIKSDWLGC
Description: The efficacy of the compounds of this invention as matrix metalloproteinase inhibitors was also determined by measuring inhibition as outlined below for Gelatinase A, a member of this family of enzymes. Recombinant active gelatinase-A (MMP-2) is purchased from Oncogene Research. The enzyme is assayed by its cleavage of a fluorescent […] 150 uL volume in a microfluor plate as described in Science 1990, 247, 954-958. Upon cleavage of the substrate, the fluorescence of the EDANS group is increased 30-fold, and this increase is monitored using a f-max (Molecular Devices) fluorescent plate reader (ex: 335 nm; em: 485 nm). The rates of cleavage of the substrate by gelatinase-A in the presence or absence of inhibitors are measured in a 40 min assay at ambient temperature. Stock solutions of the compounds in DMSO are prepared, and these solutions are diluted into the assay buffer (50 mM Tris HCl, pH 7.4, with 150 mM NaCl and 10 mM CaCl2), which is also used for dilution of the enzyme and substrate.

IC50 [nM]	SMILES
120	O=CN(O)C1CCCCC1CS(=O)(=O)c1ccc(Oc2ccc(F)cc2)cc1 (racemic) [Example 134, (±)-2-(((4-(4-fluorophenoxy)phenyl)sulfonyl)methyl)cyclohexyl(hydroxy)formamide]
4.3	CC(C)(CN(O)C=O)CS(=O)(=O)c1ccc(Oc2ccccc2)cc1 [Example 129, 2,2-dimethyl-3-((4-phenoxyphenyl)sulfonyl)propyl(hydroxy)formamide]
12	CC1(C)NC(=O)N(C[C@@H](CCS(=O)(=O)c2ccc(Oc3ccc(Cl)cc3)cc2)N(O)C=O)C1=O [Example 130]
4.9	CC(C)(CN(O)C=O)CS(=O)(=O)c1ccc(Oc2ccc(OC(F)(F)F)cc2)cc1 [Example 131, 2,2-dimethyl-3-((4-(4-(trifluoromethoxy)phenoxy)phenyl)sulfonyl)propyl(hydroxy)formamide]
15	CN1C(=O)N(C[C@@H](CCS(=O)(=O)c2ccc(Oc3ccc(F)cc3)cc2)N(O)C=O)C(=O)C1(C)C [Example 132, (1R)-3-((4-(4-fluorophenoxy)phenyl)sulfonyl)-1-((3,4,4-trimethyl-2,5-dioxo-1-imidazolidinyl)methyl)propyl(hydroxy)formamide]
0.6	O=CN(O)CC1(CS(=O)(=O)c2ccc(Oc3ccc(OC(F)(F)F)cc3)cc2)COCOC1 [Example 135, Hydroxy((5-(((4-(4-(trifluoromethoxy)phenoxy)phenyl)sulfonyl)methyl)-1,3-dioxan-5-yl)methyl)formamide]
